What was measured:
Assay in all cases: glycosidase inhibition assay
Details in all cases: read-out: % inhibition at 1 mM
[1] = target: T1, α-L-fucosidase from bovine kidney (Bos taurus, UniProt Q2KIM0); type: biochemical
T1 construct: gene FUCA1; commercial native enzyme from kidney
T1 sequence (Q2KIM0 23-468): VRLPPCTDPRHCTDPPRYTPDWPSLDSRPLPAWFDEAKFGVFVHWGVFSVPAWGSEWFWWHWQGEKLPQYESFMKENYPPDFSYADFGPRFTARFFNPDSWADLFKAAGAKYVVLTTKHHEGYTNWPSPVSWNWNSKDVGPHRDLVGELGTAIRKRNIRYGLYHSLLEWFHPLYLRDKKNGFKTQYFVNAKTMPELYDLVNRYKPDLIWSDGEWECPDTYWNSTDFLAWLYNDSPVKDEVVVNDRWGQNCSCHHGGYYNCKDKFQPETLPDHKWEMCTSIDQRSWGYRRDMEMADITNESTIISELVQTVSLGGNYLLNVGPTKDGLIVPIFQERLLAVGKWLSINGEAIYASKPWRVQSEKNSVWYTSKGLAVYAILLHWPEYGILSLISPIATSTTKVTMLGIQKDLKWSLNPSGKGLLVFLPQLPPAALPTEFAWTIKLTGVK
Text: glycosidase inhibition assay on α-L-fucosidase from bovine kidney

[2] = target: T2, α-D-glucosidase from Bacillus stearothermophilus (Geobacillus stearothermophilus, UniProt A0ACH1E9U3)
T2 construct: gene QSJ10_02665
T2 sequence (A0ACH1E9U3 1-555): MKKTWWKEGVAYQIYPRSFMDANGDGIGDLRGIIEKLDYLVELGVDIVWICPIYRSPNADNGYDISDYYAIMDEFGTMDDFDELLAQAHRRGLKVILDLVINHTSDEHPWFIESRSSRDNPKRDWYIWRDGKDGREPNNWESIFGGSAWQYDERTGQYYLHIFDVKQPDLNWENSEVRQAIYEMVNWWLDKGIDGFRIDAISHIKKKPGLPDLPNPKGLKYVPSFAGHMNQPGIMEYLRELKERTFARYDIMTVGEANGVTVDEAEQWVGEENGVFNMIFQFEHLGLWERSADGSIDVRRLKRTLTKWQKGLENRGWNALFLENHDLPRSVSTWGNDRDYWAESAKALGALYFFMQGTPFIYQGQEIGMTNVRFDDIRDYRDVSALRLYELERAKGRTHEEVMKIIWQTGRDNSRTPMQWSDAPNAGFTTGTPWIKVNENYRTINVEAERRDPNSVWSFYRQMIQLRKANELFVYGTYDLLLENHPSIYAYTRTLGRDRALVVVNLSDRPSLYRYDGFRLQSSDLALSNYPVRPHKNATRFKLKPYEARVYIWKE
Text: glycosidase inhibition assay on α-D-glucosidase from Bacillus stearothermophilus

[3] = target: T3, amyloglucosidase from Aspergillus niger (Aspergillus niger, UniProt P69328); type: biochemical
T3 construct: gene GLAA; commercial native enzyme preparation
Text: glycosidase inhibition assay on amyloglucosidase from Aspergillus niger

[4] = target: T4, α-D-mannosidase from Jack beans (Canavalia ensiformis, UniProt C0HJB3); type: biochemical
T4 construct: commercial native enzyme preparation
T4 sequence (C0HJB3 1-562): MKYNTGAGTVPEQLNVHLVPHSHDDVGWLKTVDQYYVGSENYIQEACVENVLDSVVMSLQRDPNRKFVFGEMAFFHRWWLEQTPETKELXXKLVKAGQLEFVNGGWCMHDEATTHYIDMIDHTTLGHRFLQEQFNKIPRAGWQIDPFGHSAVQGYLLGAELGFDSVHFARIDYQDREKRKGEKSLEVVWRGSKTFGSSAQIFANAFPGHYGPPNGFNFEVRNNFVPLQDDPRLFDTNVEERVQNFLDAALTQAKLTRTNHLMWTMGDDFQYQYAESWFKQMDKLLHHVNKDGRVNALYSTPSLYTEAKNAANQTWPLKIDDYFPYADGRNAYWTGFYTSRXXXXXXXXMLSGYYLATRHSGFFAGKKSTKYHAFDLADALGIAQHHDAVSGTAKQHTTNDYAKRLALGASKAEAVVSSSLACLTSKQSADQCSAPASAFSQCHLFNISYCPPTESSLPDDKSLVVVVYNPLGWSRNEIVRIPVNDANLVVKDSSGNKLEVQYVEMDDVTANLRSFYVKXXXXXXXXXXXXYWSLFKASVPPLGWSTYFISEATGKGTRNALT
T4 sequence (C0HJB3 563-981): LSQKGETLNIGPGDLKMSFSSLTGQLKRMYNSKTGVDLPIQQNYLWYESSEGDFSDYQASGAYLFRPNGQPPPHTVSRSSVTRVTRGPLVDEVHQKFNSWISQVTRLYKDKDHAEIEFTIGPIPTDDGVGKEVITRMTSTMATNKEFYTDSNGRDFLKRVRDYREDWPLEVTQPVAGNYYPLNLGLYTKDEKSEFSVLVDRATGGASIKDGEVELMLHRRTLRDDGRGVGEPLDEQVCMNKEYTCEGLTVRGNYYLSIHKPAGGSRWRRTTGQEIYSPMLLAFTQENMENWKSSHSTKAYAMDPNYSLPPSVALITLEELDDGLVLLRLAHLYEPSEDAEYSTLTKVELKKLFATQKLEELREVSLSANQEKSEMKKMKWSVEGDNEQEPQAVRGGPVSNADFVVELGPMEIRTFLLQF
Text: glycosidase inhibition assay on α-D-mannosidase from Jack beans

T3 sequence (P69328 25-640): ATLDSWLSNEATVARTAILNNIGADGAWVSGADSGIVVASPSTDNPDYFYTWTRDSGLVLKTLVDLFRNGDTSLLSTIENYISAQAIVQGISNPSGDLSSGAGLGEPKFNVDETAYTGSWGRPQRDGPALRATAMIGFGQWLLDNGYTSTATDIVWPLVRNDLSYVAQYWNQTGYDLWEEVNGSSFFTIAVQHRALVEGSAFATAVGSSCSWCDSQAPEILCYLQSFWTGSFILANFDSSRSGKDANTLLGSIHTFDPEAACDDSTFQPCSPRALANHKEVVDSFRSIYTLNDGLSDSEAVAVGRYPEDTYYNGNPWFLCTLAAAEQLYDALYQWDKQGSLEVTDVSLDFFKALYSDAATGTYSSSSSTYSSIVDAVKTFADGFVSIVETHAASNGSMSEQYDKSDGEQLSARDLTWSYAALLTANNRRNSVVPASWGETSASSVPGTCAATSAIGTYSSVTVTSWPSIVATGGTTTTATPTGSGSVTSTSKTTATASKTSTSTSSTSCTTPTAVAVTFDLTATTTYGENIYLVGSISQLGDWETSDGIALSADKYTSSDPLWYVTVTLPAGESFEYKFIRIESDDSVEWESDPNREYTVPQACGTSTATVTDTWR

SMILES | inhibition at 1000 µM [1] [%] | inhibition at 1000 µM [2] [%] | inhibition at 1000 µM [3] [%] | inhibition at 1000 µM [4] [%]
O[C@H]1[C@H](O)[C@@H](O)C[C@H](O)[C@H](O)C[C@@H]1O [compound 5, C8 hexa-substituted carbasugar 5] | 14 | 9 | – | –
O[C@H]1[C@H](O)[C@H](O)C[C@H](O)[C@H](O)C[C@H]1O [compound 6, C8 hexa-substituted carbasugar 6] | 13 | – | – | –
N[C@H]1C[C@H](O)[C@@H](O)[C@H](O)[C@@H](O)C[C@@H]1O [compound 15, aminocyclitol 15] | – | – | 28 | 16
N[C@@H]1C[C@@H](O)[C@@H](O)[C@H](O)[C@H](O)C[C@H]1O [compound 16, aminocyclitol 16] | – | – | – | 8
OCC(CO)N[C@H]1C[C@H](O)[C@@H](O)[C@H](O)[C@@H](O)C[C@@H]1O [compound 19, C8-voglibose mimetic 19] | – | – | 27 | 10
OCC(CO)N[C@@H]1C[C@@H](O)[C@@H](O)[C@H](O)[C@H](O)C[C@H]1O [compound 20, aminocyclitol 20] | – | 6 | 29 | 8
